In patent US20030170693A1, “Assay for identifying modulators of Borrelia telomere resolvase” (priority 2001, published 2003):
Like-named read-outs stand apart in the source and are kept apart here.

Legend:
ResT = molecular target: T1, ResT (Borreliella burgdorferi, UniProt O50979); assay: In vitro telomere resolution by ResT (plasmid substrate, agarose gel); format: biochemical; conditions: for inhibition of ResT: 2 mM, data not shown; for concentration at which complete inhibition of ResT activity was observed: pYT1 as the substrate, agarose gel, FIG. 8A; for effect of peptide on in vitro ResT activity: peptide inhibitors of tyrosine recombinase or topoisomerase, FIG. 9
T1 construct: made in house; host or cells: E. coli BL21 (lambda DE3) pLysS, strain BGC88 carrying pKK4
T1 sequence (O50979 1-449): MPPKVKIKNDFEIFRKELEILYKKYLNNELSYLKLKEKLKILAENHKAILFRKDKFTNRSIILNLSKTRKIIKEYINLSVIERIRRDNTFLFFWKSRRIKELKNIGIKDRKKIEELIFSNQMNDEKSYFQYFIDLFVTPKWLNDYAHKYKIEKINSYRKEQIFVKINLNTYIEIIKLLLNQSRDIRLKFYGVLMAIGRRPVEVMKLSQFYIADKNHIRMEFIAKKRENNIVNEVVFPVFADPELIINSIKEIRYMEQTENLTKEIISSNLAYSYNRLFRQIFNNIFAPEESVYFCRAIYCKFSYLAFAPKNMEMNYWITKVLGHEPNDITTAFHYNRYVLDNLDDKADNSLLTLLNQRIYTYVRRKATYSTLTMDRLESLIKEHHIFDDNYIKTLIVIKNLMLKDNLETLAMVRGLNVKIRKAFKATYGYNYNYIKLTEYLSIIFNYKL
Protocol: The activity of the purified recombinant protein (ResT) was assayed using plasmids previously established to be in vivo substrates for telomere resolution in B. burgdorferi (Chaconas et al., 2001). pGCL15-6 has a 70 bp replicated left-end telomere from the linear plasmid Ip17 (FIG. 1B). Typical reaction conditions, herein defined as 1× reaction are as follows: 25 mM Tris-HCl [pH 8.5], 100 mM NaCl, 1 mM EDTA, 5 mM spermidine, 100 μg/ml bovine serum albumin, 5 μg/ml substrate DNA and 2 μg/ml ResT. Reactions (typically 30 μl) were incubated at 30° C. for 30 min and terminated by addition of SDS to a final concentration of 0.5%. Spermidine contributes an approximate 3-fold stimulation to the reaction and was therefore omitted from the reactions used for cleavage site determination. Linearized and relaxed plasmid substrates were prepared in 10-20 μg batches by reaction with the specified restriction enzyme with the manufacturers buffers or with Shope Fibroma Virus topoisomerase I (gift of Dr. David Evans, University of Guelph), in ResT reaction buffer. These reactions were then extracted with phenol/chloroform, chloroform alone, and subsequently ethanol precipitated and resuspended in 25 mM Hepes-NaOH [pH 7.6], 0.1 mM EDTA.
Reactions were performed containing increasing amounts of the topoisomerase inhibitors coumermycin A1 or novobiocin. The reactions were analyzed by agarose gel electrophoresis followed by staining with ethidium bromide.
In vitro ResT activity was assayed in the presence of peptide inhibitors provided by Dr. Anca Segall, San Diego State University. These peptides were previously characterized as inhibitors of tyrosine recombinase or topoisomerase activity (Cassell et al., 2000; Klemm et al., 2000). […] The results also raise the possibility for further development of peptide inhibitors of ResT for therapeutic and/or environmental agents to inhibit growth of Borrelia species.

[1] = tested on: B. burgdorferi strain (NGR) carrying a triple mutation in the gyrB gene; assay: Growth of B. burgdorferi strain (NGR) carrying coumarin-resistant gyrase in culture; format: cell-based, Borrelia burgdorferi; conditions: read-out: IC50, inhibition of growth of B. burgdorferi carrying the resistant gyrase
Protocol: To determine whether coumermycin Al and novobiocin could block growth of B. burgdorferi in culture, a B. burgdorferi strain (NGR) carrying a triple mutation in the gyrB gene (Knight et al., 2000; Rosa et al., 1996) was used (provided by Dr. D. Scott Samuels, University of Montana, Missoula). The triple mutation in the gyrase B subunit renders the mutant DNA gyrase resistant to coumermycin A1 and novobiocin. B. burgdorferi carrying the resistant gyrase was grown in the absence, or in the presence of increasing amounts of coumermycin A1 or novobiocin. […] The drug concentrations for complete inhibition of growth were almost identical to the concentrations of both drugs required for complete inhibition of ResT in vitro.

CC[C@@]1(O)C(=O)OCc2c1cc1n(c2=O)Cc2cc3ccccc3nc2-1 [camptothecin]
inhibition of ResT (ResT): did not inhibit

CCn1cc(C(=O)O)c(=O)c2ccc(C)nc21 [nalidixic acid]
inhibition of ResT (ResT): did not inhibit

CO[C@@H]1[C@@H](OC(N)=O)[C@@H](O)[C@H](Oc2ccc3c(O)c(NC(=O)c4ccc(O)c(CC=C(C)C)c4)c(=O)oc3c2C)OC1(C)C [novobiocin]
concentration at which complete inhibition of ResT activity was observed (ResT): 1 mM | IC50 ([1]; Borreliella burgdorferi): 255 µM

NCCCCNCCCN [spermidine]
stimulation of the in vitro telomere resolution reaction (ResT; 5 mM spermidine in 1× reaction): ~3 fold

Peptide #52: peptide which traps the Holliday junction intermediate in λ recombination (WKHYNY; Peptide #52)
effect of peptide on in vitro ResT activity (ResT): did not have any effect

coumermycin A1
concentration at which complete inhibition of ResT activity was observed (ResT): 0.15 mM | IC50 ([1]; gyrB triple mutant strain NGR, FIG. 8B): 75 µM

peptide #59: peptide which inhibits DNA cleavage by λ integrase (KWWCRW; Peptide #59)
effect of peptide on in vitro ResT activity (ResT): mild stimulator
